The target of one data set is T1, (H+/K+)-ATPase (Canis lupus familiaris, UniProt P50996).
T1 construct: The microsomes retained at the 15%-30% sucrose interface, after centrifugation at 250,000×g for sixty minutes, were used as the source of (H^+/K^+)-ATPase; from tissue; host or cells: gastric glandular mucosa of mongrel dogs (microsomal fraction, lyophilized)
In words: Inhibition of (H+/K+)-ATPase from canine gastric mucosa (inorganic phosphate release). Format: biochemical. The following applies: canine gastric mucosa microsomes, pH 6.0, 30 min preincubation at 37° C.; read-out: (H+/K+)-ATPase IC50. An outline of the steps:
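Lyophilised gastric microsomes (sucrose-gradient 15%/30% interface fraction from dog mucosa, ~25 mcg protein) preincubated with compound 30 min at 37° C in 20 mM MES-Tris pH 6.0, 5 mM MgCl2, 25 mM sucrose, then 30 min more after 4 mM Tris-ATP. Released phosphate read by molybdate/ascorbate at 870 nm; activity = K+-stimulated (20 mM KCl) minus basal.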

The test system of data set [1] is gastric acid secretion. The data set is described as follows: Inhibition of gastric acid secretion in gastric fistula beagle dogs (histamine-stimulated). The following applies: Canis lupus familiaris, 4 h, histamine-stimulated, four-hour period, read-out: Gastric-Fistula Beagle % Inhibition (3 mg/kg dose). Format: in vivo. The source says: Adult female beagle dogs weighing 6 to 11 kilograms obtained from Laboratory Research Enterprises (Kalamazoo, Mich.) or from Hazelton Research Animals (Cumberland, Va.) were surgically implanted with a simple Thomas-type gastric cannula. After recovery from surgery, the dogs were trained to stand quietly, fully conscious, in Pavlov-type dog restraining slings and were acclimated to intravenous infusion of histamine dihydrochloride. During the course of these studies, no dog was used more than once a week. All dogs were deprived of food, but not water, for 18 hours prior to each assay. Each dog was initially infused with 0.15 M sodium chloride solution at a constant rate of […]. The volume of gastric secretions, collected in plastic bottles affixed to the cannula, were measured to the nearest 0.1 ml at 30 minute intervals. One of the following protocols was followed, depending on the route chosen for administration of test compound.
Intravenous dosing: Following a 30-minute basal secretion period, test compounds were administered intravenously (i.v.). At the end of an additional 30 minute period, the saline infusion was replaced with histamine dihydrochloride in saline administered at a rate 15 mcg per kilogram of body weight per hour. Histamine stimulation was maintained for a maximum of four hours during which time gastric secretions were collected every 30 minutes. The pH and titratable acidity were determined for samples from each collection period.
Intragastric dosing: Following a 30-minute basal secretion period, he collection bottles were removed, dosing plugs here inserted, and test compounds were administered intragastrically (i.g.) At the end of a 30-minute drug absorption period, the stomachs were emptied, the collection bottles were reattached, and collections were resumed at 30-minute intervals. Simultaneously, the saline infusion was replaced with a continuous intravenous infusion of histamine dihydrochloride in saline administered for four hours at a rate 15 mcg per kilogram of body weight per hour.
Intraduodenal dosing: Dogs were also equipped with duodenal cannulas for intraduodenal (i.d.) administration of test compounds. Dosing was otherwise performed as described for intragastric dosing.
Data from each protocol were analyzed for three gastric sample variables: volume of gastric juice, acid concentration, and total acid output. Percent inhibition for each four-hour experimental period was determined for each parameter by comparison with 3 to 4 controls in which […]. Estimates of ED50's were determined from dose response curves.

Data set [2] has as its system gastric acid secretion. The data set is described as follows: Inhibition of gastric acid secretion in meal-stimulated Pavlov pouch dog. Format: in vivo, beagle dogs. The following applies: 3 mg/kg, four-hour period. As for the experimental part:
Adult female beagle dogs weighing 6 to 10 kilograms were obtained from Laboratory Research Enterprises (Kalamazoo, Mich.) or from Hazelton Research Animals (Cumberland, Va.). Surgical implantation of a Thomas-type gastric cannula into an innervated Pavlov pouch of each dog was performed by the method reported by L. Burrows et al., J. Surgical Res., 4, 147 (1964). After recovery from surgery, the dogs were trained to stand quietly, fully conscious, in Pavlov-type dog restraining slings. All dogs were deprived of food, but not water, for 24 hours prior to each assay. Basal acid secretion was measured by collecting from the cannulas for 30 minutes before dosing with a test compound. Solutions of the test compounds in iso-osmotic phosphate buffer (pH 7.4) were given either intravenously or directly into the Pavlov pouch. After 30 minutes the pouch was drained. The dogs were then fed 320 grams of dog food and gastric acid secretions were collected each half hour for four hours. Controls were determined in the same way except that only food (i.e., no test compound) was administered.
Data were analyzed for three different variables: volume of gastric juice, acid concentration, and total acid output. Percent inhibition for the four-hour experimental period was determined for each parameter by comparison with 3 to 4 controls. Estimates of ED50 were determined from dose response curves.

Read-outs that look alike come from different tables or passages of the source.

T1 sequence (P50996 whole entry): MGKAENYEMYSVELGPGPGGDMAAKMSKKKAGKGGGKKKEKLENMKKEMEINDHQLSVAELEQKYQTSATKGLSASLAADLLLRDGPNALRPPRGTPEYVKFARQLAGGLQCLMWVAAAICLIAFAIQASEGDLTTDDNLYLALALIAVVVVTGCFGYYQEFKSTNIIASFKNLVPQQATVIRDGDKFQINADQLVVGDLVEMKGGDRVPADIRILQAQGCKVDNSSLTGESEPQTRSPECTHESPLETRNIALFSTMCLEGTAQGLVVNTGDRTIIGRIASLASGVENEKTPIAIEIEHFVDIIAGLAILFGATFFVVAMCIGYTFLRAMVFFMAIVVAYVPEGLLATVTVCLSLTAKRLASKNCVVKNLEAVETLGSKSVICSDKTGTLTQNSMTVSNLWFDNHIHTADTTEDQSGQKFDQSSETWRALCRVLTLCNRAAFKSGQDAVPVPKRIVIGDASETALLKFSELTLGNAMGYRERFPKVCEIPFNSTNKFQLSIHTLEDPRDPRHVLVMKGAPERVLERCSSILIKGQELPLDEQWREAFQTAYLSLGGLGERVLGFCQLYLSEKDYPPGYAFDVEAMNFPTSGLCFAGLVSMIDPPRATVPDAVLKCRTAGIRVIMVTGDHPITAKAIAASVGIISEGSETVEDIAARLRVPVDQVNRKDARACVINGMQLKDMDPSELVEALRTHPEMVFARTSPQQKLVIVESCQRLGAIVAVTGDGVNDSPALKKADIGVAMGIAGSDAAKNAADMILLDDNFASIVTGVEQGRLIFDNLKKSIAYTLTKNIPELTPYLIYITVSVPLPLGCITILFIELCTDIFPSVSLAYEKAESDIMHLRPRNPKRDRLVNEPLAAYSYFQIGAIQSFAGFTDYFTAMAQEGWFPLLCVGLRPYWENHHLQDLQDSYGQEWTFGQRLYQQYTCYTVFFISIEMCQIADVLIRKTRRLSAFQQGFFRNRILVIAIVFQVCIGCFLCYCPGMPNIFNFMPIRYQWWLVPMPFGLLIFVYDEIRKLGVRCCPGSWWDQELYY
T1 sequence (P33704 whole entry partner): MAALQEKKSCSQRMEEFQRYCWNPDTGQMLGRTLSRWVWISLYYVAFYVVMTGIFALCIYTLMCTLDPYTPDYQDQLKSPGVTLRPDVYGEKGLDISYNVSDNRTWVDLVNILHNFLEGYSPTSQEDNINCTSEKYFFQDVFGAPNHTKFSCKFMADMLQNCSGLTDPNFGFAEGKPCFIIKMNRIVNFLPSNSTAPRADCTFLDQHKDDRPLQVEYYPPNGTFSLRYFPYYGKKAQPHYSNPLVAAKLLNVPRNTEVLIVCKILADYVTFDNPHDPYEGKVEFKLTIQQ

With `CN(C)c1ccccc1C[S+]([O-])c1nc2ccccc2[nH]1` (stereo not shown) [Example 4, 2-[(1H-Benzimidazol-2-ylsulfinyl)methyl]N,N-dimethylbenzenamine], the melting point lay within 107 to 109 °C. In addition, the IC50 on (H+/K+)-ATPase was 0.7 µM. The inhibition in vivo at 3 mg/kg in the data set with gastric acid secretion [1] (iv, 3 mg/kg i.v.) amounted to 14%. In addition, the “Pavlov-Pouch Dog % Inhibition (dose (mg/kg))” value with gastric acid secretion [2] was 3 (3 mg/kg) %.

Take `COc1ccc2[nH]c([S+]([O-])Cc3cc(C)ccc3N)nc2c1` (stereo not shown) [Example 34, 2-[[(5-Methoxy-1H-benzimidazol-2-yl)sulfinyl]methyl]-4-methylbenzenamine]: the melting point lay within 148 to 149 °C. In addition, on (H+/K+)-ATPase, the IC50 is 4.2 µM. In the data set with gastric acid secretion [1] (intraduodenal, 3 mg/kg i.d.), the inhibition in vivo at 3 mg/kg was determined as 66%. For the same molecule, the inhibition in vivo at 3 mg/kg in the data set with gastric acid secretion [1] (iv, 3 mg/kg i.v.) came to 91%. For the same molecule, the inhibition in vivo at 3 mg/kg in the data set with gastric acid secretion [1] (po, 3 mg/kg i.g.) stood at 43%. In addition, in the data set with gastric acid secretion [2], the “Pavlov-Pouch Dog % Inhibition (dose (mg/kg))” value is reported as 79 (3 mg/kg) %.

What is called melting point is the temperature, or range, at which the solid turns liquid.

The values above are taken from patent US6906078B2, “Method of using (H+/K+) ATPase inhibitors as antiviral agents” (Pharmacia Corporation, priority 1994, dated 2005).
